Source: patent US7462600B2, “Macrolides” (Pfizer Inc, priority 2004, dated 2008)
In brackets after ≈: the same amount, converted by molar mass. Read-outs that look alike come from different tables or passages of the source.

Experiments:
Format in all cases: cell-based
[1] = tested on: Streptococcus pneumoniae 1095; details: microtiter broth dilution
In short: (§1)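 Antibacterial activity is expressed as the MIC from broth microdilution. Reading follows the NCCLS M100-S14 performance standards, and stocks are made in DMSO at 40 mg/ml.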

[2] = tested on: Streptococcus pneumoniae 1175; details: microtiter broth dilution
In short: as §1

[3] = tested on: Streptococcus pneumoniae 1016; experiment: MIC, microtiter broth dilution (NCCLS M100-S14), S. pneumoniae 1016 (susceptible)
In short: as §1

[4] = tested on: Streptococcus pyogenes 1079; experiment: MIC, microtiter broth dilution (NCCLS M100-S14), S. pyogenes 1079 (ermB)
In short: as §1

[5] = tested on: Haemophilus influenzae 1218; experiment: MIC, microtiter broth dilution (NCCLS M100-S14), H. influenzae 1218 (susceptible)
In short: as §1

[6] = S. pneumoniae 1016 (susceptible)
[7] = H. influenzae 1218 (susceptible)

| Compound | MIC S. pneumo. 1095 ([1]; Streptococcus pneumoniae 1095) [µg/mL] | MIC S. pneumo. 1175 ([2]; Streptococcus pneumoniae 1175) [µg/mL] | MIC S. pneumo. 1016 ([3]; Streptococcus pneumoniae 1016) [µg/mL] | MIC S. pyogenes 1079 ([4]; Streptococcus pyogenes 1079) [µg/mL] | MIC H. influenzae 1218 ([5]; Haemophilus influenzae 1218) [µg/mL] | MIC S. pneumo. 1095 ([1]; S. pneumoniae 1095 (ermB)) [µg/mL] | MIC S. pneumo. 1175 ([2]; S. pneumoniae 1175 (mefA)) [µg/mL] | MIC S. pneumo. 1016 [3, 6] [µg/mL] | MIC S. pyogenes 1079 ([4]; S. pyogenes 1079 (ermB)) [µg/mL] | MIC H. influenzae 1218 [5, 7] [µg/mL] |
| --- | --- | --- | --- | --- | --- | --- | --- | --- | --- | --- |
| CCC1OC(=O)C(C)C(=O)C(C)C(OC2OC(C)CC(N(C)C)C2O)C(C)(OC)CC(C)C(=O)C(C)C2N(C3CN(Cc4cccc5ccccc45)C3)C(=O)OC12C (stereo not drawn) [Example 1.91, 3-descladinosyl-11,12-dideoxy-6-O-methyl-3-oxo-12,11-(oxycarbonyl-(1-(naphthalene-1-methyl)-azetidin-3-yl)-imino)-erythromycin A] | 0.125 (≈ 0.155 µM) | <0.063 | <0.063 | 8 (≈ 9.9 µM) | 1 (≈ 1.24 µM) |  |  |  |  |  |
| CCC1OC(=O)C(C)C(=O)C(C)C(OC2OC(C)CC(N(C)C)C2O)C(C)(OC)CC(C)C(=O)C(C)C2N(CC3CCCN3C(=O)c3cc4cccnc4nc3C(F)(F)F)C(=O)OC12C (stereo not drawn) [10.40] |  |  |  |  |  | <0.06 | <0.06 | <0.06 | >64.00 | 2 (≈ 2.17 µM) |
| CCC1OC(=O)C(C)C(=O)C(C)C(OC2OC(C)CC(N(C)C)C2O)C(C)(OC)CC(C)C(=O)C(C)C2N(C3CN(S(=O)(=O)c4cccc(-c5cc(C)no5)c4)C3)C(=O)OC12C (stereo not drawn) [Example 3.40, 3-descladinosyl-11,12-dideoxy-6-O-methyl-3-oxo-12,11-(oxycarbonyl-1(-(3-(3-methylisoxazol-5-yl)benzenesulfonyl)-azetidin-3-yl)-imino)-erythromycin A] | <0.06 | <0.06 | <0.06 | 4 (≈ 4.5 µM) | 2 (≈ 2.25 µM) |  |  |  |  |  |
| CC[C@H]1OC(=O)[C@H](C)[C@@H](OC(=O)N2CCCC2C)[C@H](C)[C@@H](O[C@@H]2O[C@H](C)C[C@H](N(C)C)[C@H]2O)[C@](C)(OC)C[C@@H](C)C(=O)[C@H](C)[C@H]2N(CC3CN(Cc4c[nH]c5ncccc45)C3)C(=O)O[C@]12C (stereo partly drawn) [Example 5.03, 3-descladinosyl-11,12-dideoxy-6-O-methyl-12,11-(oxycarbonyl-(1-((1H-pyrrolo[2,3-b]pyridin-3-yl)-methyl)-(azetidin-3-yl)-methyl)-imino)-3-((2-methylpyrrolidine)-1-carbonyl)-erythromycin A] | <0.06 | <0.06 | <0.06 | 0.5 (≈ 0.54 µM) | 2 (≈ 2.16 µM) |  |  |  |  |  |
| CC[C@H]1OC(=O)[C@H](C)C(=O)[C@H](C)[C@@H](O[C@@H]2O[C@H](C)C[C@H](N(C)C)[C@H]2O)[C@](C)(OC)C[C@@H](C)C(=O)[C@H](C)[C@H]2N(CC3(O)CN(C(=O)c4nc5ccccc5[nH]4)C3)C(=O)O[C@]12C.O=CO [7.28] |  |  |  |  |  | <0.06 | 0.25 | <0.06 | >64.00 | 2 |
| CCC1OC(=O)C(C)C(=O)C(C)C(OC2OC(C)CC(N(C)C)C2O)C(C)(OC)CC(C)C(=O)C(C)C2N(C3CN(Cc4ccnc5c(OC)cccc45)C3)C(=O)OC12C (stereo not drawn) [Example 1.84, 3-descladinosyl-11,12-dideoxy-6-O-methyl-3-oxo-12,11-(oxycarbonyl-(1-(8-methoxyquinoline-4-methyl)-azetidin-3-yl)-imino)erythromycin A] | <0.063 | <0.063 | <0.063 | 8 (≈ 9.53 µM) | 2 (≈ 2.38 µM) |  |  |  |  |  |
| CCC1OC(=O)C(C)C(=O)C(C)C(OC2OC(C)CC(N(C)C)C2O)C(C)(OC)CC(C)C(=O)C(C)C2N(C3CN(C(=O)Nc4cc(-c5cncc(C)c5)n[nH]4)C3)C(=O)OC12C (stereo not drawn) [Example 2.08] | 1 (≈ 1.15 µM) | 16 (≈ 18.4 µM) | <0.06 | 32 (≈ 36.9 µM) | 8 (≈ 9.22 µM) |  |  |  |  |  |
| CCC1OC(=O)C(C)C(=O)C(C)C(OC2OC(C)CC(N(C)C)C2O)C(C)(OC)CC(C)C(=O)C(C)C2N(C3CN(S(=O)(=O)c4ccc5ccccc5c4)C3)C(=O)OC12C (stereo not drawn) [Example 3.91, 3-descladinosyl-11,12-dideoxy-4-O-methyl-3-oxo-12,11-(oxycarbonyl-(1-(naphthalene-2-sulfonyl)-azetidin-3-yl)-imino)-erythromycin A] | <0.06 | <0.06 | <0.06 | 4 (≈ 4.66 µM) | 0.12 (≈ 0.14 µM) |  |  |  |  |  |
| CCC1OC(=O)C(C)C(=O)C(C)C(OC2OC(C)CC(N(C)C)C2O)C(C)(OC)CC(C)C(=O)C(C)C2N(C3CCN(Cc4cccc5ncccc45)C3)C(=O)OC12C [Example 9.02, 3-descladinosyl-11,12-dideoxy-6-O-methyl-3-oxo-12,11-(oxycarbonyl-(1-((quinolin-5-yl)-methyl)-(R)-pyrrolidin-3-yl)-imino)-erythromycin A] |  |  |  |  |  | <0.06 | 0.12 (≈ 0.146 µM) | <0.06 | 8 (≈ 9.72 µM) | 0.5 (≈ 0.608 µM) |
| CCC1OC(=O)C(C)C(=O)C(C)C(OC2OC(C)CC(N(C)C)C2O)C(C)(OC)CC(C)C(=O)C(C)C2N(C3CN(S(=O)(=O)c4cc(Cl)ccc4OC)C3)C(=O)OC12C (stereo not drawn) [Example 3.106, 3-descladinosyl-11,12-dideoxy-6-O-methyl-3-oxo-12,11-(oxycarbonyl-(1-(5-chloro-2-methoxybenzene-1-sulfonyl)-azetidin-3-yl)-imino)-erythromycin A] | <0.063 | <0.063 | <0.063 | 0.5 (≈ 0.573 µM) | 0.5 (≈ 0.573 µM) |  |  |  |  |  |
| CCc1nn(C)c2ccc(S(=O)(=O)N3CC(N4C(=O)OC5(C)C(CC)OC(=O)C(C)C(=O)C(C)C(OC6OC(C)CC(N(C)C)C6O)C(C)(OC)CC(C)C(=O)C(C)C45)C3)cc12 (stereo not drawn) [Example 3.117, 3-descladinosyl-11,12-dideoxy-6-O-methyl-3-oxo-12,11-(oxycarbonyl-(1-(3-ethyl-1-methyl-1H-indazole-5-sulfonyl)-azetidin-3-yl)-imino)-erythromycin A] | <0.063 | <0.063 | <0.063 | 1 (≈ 1.12 µM) | 1 (≈ 1.12 µM) |  |  |  |  |  |
| CCC1OC(=O)C(C)C(=O)C(C)C(OC2OC(C)CC(N(C)C)C2O)C(C)(OC)CC(C)C(=O)C(C)C2N(CC3CN(C(=O)c4ccc5ncccc5c4)C3)C(=O)OC12C (stereo not drawn) [4.33] | 1 (≈ 1.19 µM) | 0.25 (≈ 0.299 µM) | <0.06 | 64 (≈ 76.5 µM) | 1 (≈ 1.19 µM) |  |  |  |  |  |
| CCC1OC(=O)C(C)C(=O)C(C)C(OC2OC(C)CC(N(C)C)C2O)C(C)(OC)CC(C)C(=O)C(C)C2N(C3CN(C(c4ccccc4)c4cccnc4)C3)C(=O)OC12C (single isomer, unassigned) [Example 1.66, phenyl-(pyridin-3-yl)methyl (*)] | 0.5 (≈ 0.599 µM) | <0.06 | <0.06 | 64 (≈ 76.6 µM) | 2 (≈ 2.4 µM) |  |  |  |  |  |
| CC[C@H]1OC(=O)[C@H](C)C(=O)[C@H](C)[C@@H](O[C@@H]2O[C@H](C)C[C@H](N(C)C)[C@H]2O)[C@](C)(OC)C[C@@H](C)C(=O)[C@H](C)[C@H]2N(C3CN(C(C)c4ccnc5ccccc45)C3)C(=O)O[C@]12C (stereo partly drawn) [Example 1.63, 3-descladinosyl-11,12-dideoxy-6-O-methyl-3-oxo-12,11-(oxycarbonyl-(1-(1-(quinolin-4-yl)-ethyl)-azetidin-3-yl)-imino)-erythromycin A] | <0.06 | 0.12 (≈ 0.146 µM) | <0.06 | 2 (≈ 2.43 µM) | 1 (≈ 1.22 µM) |  |  |  |  |  |
| CCC1OC(=O)C(C)C(=O)C(C)C(OC2OC(C)CC(N(C)C)C2O)C(C)(OC)CC(C)C(=O)C(C)C2N(C3CN(S(=O)(=O)c4cnn(-c5ccccc5)c4C)C3)C(=O)OC12C (stereo not drawn) [Example 3.12, 5-methyl-1-phenyl-1H-pyrazole-4-sulfonyl] | 1 (≈ 1.13 µM) | <0.06 | <0.06 | 64 (≈ 72.1 µM) | 4 (≈ 4.5 µM) |  |  |  |  |  |
